Key:
[1] = target: T1, full-length PARP-1 (Homo sapiens, UniProt P09874); assay: Colorimetric assay of full-length PARP-1 DNA-dependent activity; assay type: biochemical; conditions: 20 nM PARP-1, 40 nM DNA, 50 μM NAD+
T1 construct: Full-length PARP-1 WT (residues 1–1014) was cloned in pET28 vector; made in house; host or cells: E. coli
Method: The colorimetric assay was performed as described, [28] using 20 nM of protein and 40 nM DNA (18-bp duplex). A mixture of NAD^+ and biotinylated NAD^+ (bio-NAD^+) was used at a 99:1 ratio and a final concentration of 50 µM. Reactions were allowed to proceed for 5 min before quenching. Three independent experiments were performed.

[2] = target: T2, PARP-1 CAT domain WT (Homo sapiens, UniProt P09874); assay: Differential scanning fluorimetry (DSF), PARP-1 CAT WT; assay type: binding; conditions: for TM: Figure 1e, CAT WT 5 μM, TM without compound 51.58, in °C (unit assumed)
T2 construct: The PARP-1 CAT WT (residues 661–1014) was cloned in pET28 vector; made in house; host or cells: E. coli
Method: (§1) DSF experiments were performed as described, [13] using 5 µM protein, 2.5 µM DNA when indicated and various concentrations of compound (BAD, carba-NAD^+, benzamide, and ADP-ribose) as indicated in Fig. 1 and Fig. 3. Experiments were performed on a Roche LightCycler 480 RT-PCR. Reactions including DNA were performed with a 26- or 28-base pair (bp) unphosphorylated oligonucleotide for PARP-1, a 28-bp 5´-phosphorylated (5´P) oligonucleotide for PARP-2, and a 47-bp oligonucleotide including a central 5´P nick for PARP-3^13 in the following buffer: 25 mM Hepes pH 8.0, 150 mM NaCl, 1 mM EDTA, and 0.1 mM TCEP. Reactions with PARP-3 were conducted at lower ionic strength to allow binding to DNA as described (25 mM Hepes pH 8.0, 50 mM NaCl, 1 mM EDTA and 0.1 mM TCEP)[13]. ΔTM values were calculated by subtracting the TM determined for the protein in the absence of compound from the TM determined in the presence of compound. Experiments were performed in triplicate and a Boltzmann sigmoid was fit to the data to determine the TM values (KaleidaGraph).

[3] = target: T3, PARP-1 CAT ΔHD (Homo sapiens, UniProt P09874); assay: DSF, PARP-1 CAT ΔHD; assay type: binding; conditions: for TM: Figure 1e, CAT ΔHD 5 μM, TM without compound 41.26, in °C (unit assumed)
T3 construct: a pET28 construct coding for PARP-1 residues 661-1011; made in house; host or cells: E. coli
Method: as §1

[4] = 5 μM protein, various amounts of compound

T3 sequence (P09874 with tags, fused parts or gaps): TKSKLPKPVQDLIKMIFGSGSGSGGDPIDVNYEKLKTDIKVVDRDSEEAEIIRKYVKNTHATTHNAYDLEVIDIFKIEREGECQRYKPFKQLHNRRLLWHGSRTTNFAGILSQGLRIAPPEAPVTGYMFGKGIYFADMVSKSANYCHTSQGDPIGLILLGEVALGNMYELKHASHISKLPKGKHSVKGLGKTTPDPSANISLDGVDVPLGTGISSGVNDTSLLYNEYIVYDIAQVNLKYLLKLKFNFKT
T2 sequence (P09874 661-1014): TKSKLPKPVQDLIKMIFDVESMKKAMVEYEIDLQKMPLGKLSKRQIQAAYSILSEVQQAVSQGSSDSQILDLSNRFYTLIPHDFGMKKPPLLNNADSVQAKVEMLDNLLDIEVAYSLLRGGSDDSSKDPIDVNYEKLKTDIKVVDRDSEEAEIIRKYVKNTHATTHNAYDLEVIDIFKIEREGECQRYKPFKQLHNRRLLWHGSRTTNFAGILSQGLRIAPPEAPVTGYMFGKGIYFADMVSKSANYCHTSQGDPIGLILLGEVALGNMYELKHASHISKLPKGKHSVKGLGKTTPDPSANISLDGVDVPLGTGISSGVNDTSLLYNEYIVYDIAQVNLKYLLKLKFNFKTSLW
T1 sequence (P09874 whole entry, the tested form may be a part): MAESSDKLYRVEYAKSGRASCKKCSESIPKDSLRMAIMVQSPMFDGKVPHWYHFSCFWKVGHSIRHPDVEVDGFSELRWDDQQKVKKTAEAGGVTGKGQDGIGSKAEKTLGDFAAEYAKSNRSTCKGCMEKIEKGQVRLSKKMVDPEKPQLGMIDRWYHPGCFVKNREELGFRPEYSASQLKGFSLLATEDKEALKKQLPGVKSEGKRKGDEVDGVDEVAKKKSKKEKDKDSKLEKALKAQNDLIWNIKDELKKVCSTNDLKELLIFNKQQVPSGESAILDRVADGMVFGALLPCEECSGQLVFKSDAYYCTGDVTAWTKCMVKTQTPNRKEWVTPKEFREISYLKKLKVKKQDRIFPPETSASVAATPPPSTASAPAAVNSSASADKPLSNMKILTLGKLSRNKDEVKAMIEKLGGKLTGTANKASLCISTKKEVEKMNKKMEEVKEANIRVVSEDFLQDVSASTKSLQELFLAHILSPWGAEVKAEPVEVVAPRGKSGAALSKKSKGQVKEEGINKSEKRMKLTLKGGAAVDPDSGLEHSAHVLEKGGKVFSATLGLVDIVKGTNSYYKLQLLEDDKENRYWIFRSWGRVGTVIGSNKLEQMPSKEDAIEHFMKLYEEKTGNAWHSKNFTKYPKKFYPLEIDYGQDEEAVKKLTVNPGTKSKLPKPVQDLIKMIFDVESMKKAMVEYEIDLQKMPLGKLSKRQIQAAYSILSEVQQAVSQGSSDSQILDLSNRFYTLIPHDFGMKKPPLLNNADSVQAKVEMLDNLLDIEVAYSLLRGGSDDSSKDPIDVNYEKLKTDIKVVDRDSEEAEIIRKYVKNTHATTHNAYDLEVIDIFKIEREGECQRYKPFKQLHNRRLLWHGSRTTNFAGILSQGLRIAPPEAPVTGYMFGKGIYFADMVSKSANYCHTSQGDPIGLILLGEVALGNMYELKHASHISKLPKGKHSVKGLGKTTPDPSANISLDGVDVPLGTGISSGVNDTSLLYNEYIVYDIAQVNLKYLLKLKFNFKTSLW

change of apparent TM of PARP-1 CAT WT (evidence of binding) [2, 4]: no evidence of binding
TM ([2]; compound 25 µM): 51.52
TM ([2]; compound 150 µM): 51.61
TM ([2]; compound 750 µM): 51.56
TM ([2]; compound 1500 µM): 51.53
change of TM of CAT ΔHD (evidence of binding) [3, 4]: no evidence of binding
TM ([3]; compound 25 µM): 41.46
TM ([3]; compound 150 µM): 41.57
TM ([3]; compound 750 µM): 41.43
TM ([3]; compound 1500 µM): 41.68
SMILES: Nc1ncnc2c1ncn2C1OC(COP(=O)(O)OP(=O)(O)OCC2OC(O)C(O)C2O)C(O)C1O (centres unmarked) [ADP-ribose]
inhibition of DNA damage-dependent activity of full-length PARP-1 [1]: does not inhibit the reaction

Reference: paper PMC5829251, “NAD^+ analog reveals PARP-1 substrate-blocking mechanism and allosteric communication from catalytic center to DNA-binding domains” (Nature Communications, 2018)
